Key:
[1] = Selectivity index, ratio of CC50 for human HepG2 cells to IC50 for Plasmodium falciparum W2; assay type: functional
[2] = Cytotoxicity against human HepG2 cells after 72 hrs by MTT assay; assay type: cell-based
Plasmodium falciparum = assay: Antiplasmodial activity against chloroquine-, pyrimethamine- and proguanil-resistant Plasmodium falciparum K1 infected in human erythrocytes after 72 hrs by SYBR Green I fluorescence-based method; assay type: functional, organism-based; settings: K1, 72 h
[3] = Selectivity index, ratio of CC50 for human HepG2 cells to IC50 for chloroquine-, pyrimethamine- and proguanil-resistant Plasmodium falciparum K1 infected in human erythrocytes; assay type: functional

Compound: ClC(Cl)(Cl)c1nc(-c2ccccc2)c2ccccc2n1
- Ratio CC50/IC50 [1]: >15.6
- CC50 at 72 h [2]: > 125 µM

Compound: ClC(Cl)(Cl)c1nccc2ccccc12
- IC50 (Plasmodium falciparum): 8 µM
- Ratio CC50/IC50 [3]: 22.5
- CC50 at 72 h [2]: 180 µM

Compound: ClC(Cl)(Cl)c1ncnc2ccccc12
- IC50 (Plasmodium falciparum): > 50 µM
- CC50 at 72 h [2]: > 500 µM

Compound: ClC(Cl)(Cl)c1ncc2ccccc2n1
- IC50 (Plasmodium falciparum): 17.6 µM
- Ratio CC50/IC50 [3]: 3.5
- CC50 at 72 h [2]: 61 µM

Compound: Cc1ncc2ccccc2n1
- IC50 (Plasmodium falciparum): > 50 µM
- Ratio CC50/IC50 [3]: <7
- CC50 at 72 h [2]: 350 µM

Compound: ClC(Cl)(Cl)c1cnc2ccccc2n1
- IC50 (Plasmodium falciparum): 1.5 µM
- Ratio CC50/IC50 [3]: 2.1
- CC50 at 72 h [2]: 3.1 µM

Compound: Cc1cnc2ccccc2n1
- IC50 (Plasmodium falciparum): > 50 µM
- CC50 at 72 h [2]: > 500 µM

Compound: ClC(Cl)c1cnc2ccccc2n1
- IC50 (Plasmodium falciparum): 12.8 µM
- Ratio CC50/IC50 [3]: 1.5
- CC50 at 72 h [2]: 19.3 µM

Compound: FC(F)(F)c1cnc2ccccc2n1
- IC50 (Plasmodium falciparum): > 50 µM
- CC50 at 72 h [2]: > 500 µM

Compound: ClC(Cl)(Cl)c1nc2ccccc2nc1-c1ccccc1
- IC50 (Plasmodium falciparum): 0.2 µM
- Ratio CC50/IC50 [3]: 17.5
- CC50 at 72 h [2]: 3.5 µM

Compound: ClC(Cl)(Cl)c1nc2ccccc2n2cccc12
- IC50 (Plasmodium falciparum): 1.5 µM
- Ratio CC50/IC50 [3]: 27.5
- CC50 at 72 h [2]: 41.2 µM

Compound: Fc1ccc2c(c1)nc(C(Cl)(Cl)Cl)c1cccn12
- IC50 (Plasmodium falciparum): 1.7 µM
- Ratio CC50/IC50 [3]: >8.8
- CC50 at 72 h [2]: > 15 µM

Compound: Clc1ccc2c(c1)nc(C(Cl)(Cl)Cl)c1cccn12
- IC50 (Plasmodium falciparum): 1.6 µM
- Ratio CC50/IC50 [3]: 6.1
- CC50 at 72 h [2]: 9.8 µM

Compound: ClC(Cl)(Cl)c1nc2cc(I)ccc2n2cccc12
- IC50 (Plasmodium falciparum): 1.2 µM
- Ratio CC50/IC50 [3]: 5.5
- CC50 at 72 h [2]: 6.6 µM

Compound: Cc1ccc2c(c1)nc(C(Cl)(Cl)Cl)c1cccn12
- IC50 (Plasmodium falciparum): 2.4 µM
- Ratio CC50/IC50 [3]: 22.1
- CC50 at 72 h [2]: 53 µM

Compound: COc1ccc2c(c1)nc(C(Cl)(Cl)Cl)c1cccn12
- IC50 (Plasmodium falciparum): 4.2 µM
- Ratio CC50/IC50 [3]: 8.3
- CC50 at 72 h [2]: 35 µM

Compound: N#Cc1ccc2c(c1)nc(C(Cl)(Cl)Cl)c1cccn12
- IC50 (Plasmodium falciparum): 1.5 µM
- Ratio CC50/IC50 [3]: 11.3
- CC50 at 72 h [2]: 17 µM

Compound: O=C(O)c1ccc2c(c1)nc(C(Cl)(Cl)Cl)c1cccn12
- IC50 (Plasmodium falciparum): 22 µM
- Ratio CC50/IC50 [3]: <10.6
- CC50 at 72 h [2]: 106 µM

Compound: N/C(=N/O)c1ccc2c(c1)nc(C(Cl)(Cl)Cl)c1cccn12
- IC50 (Plasmodium falciparum): 1.75 µM
- Ratio CC50/IC50 [3]: >8.6
- CC50 at 72 h [2]: > 15 µM

Compound: Cc1nc2ccccc2n2cccc12
- IC50 (Plasmodium falciparum): > 50 µM
- Ratio CC50/IC50 [3]: <2.4
- CC50 at 72 h [2]: 120 µM

Compound: Cc1ccc2c(c1)nc(C)c1cccn12
- IC50 (Plasmodium falciparum): > 50 µM
- Ratio CC50/IC50 [3]: <4.7
- CC50 at 72 h [2]: 57 µM

Compound: Cc1nc2cc(C#N)ccc2n2cccc12
- IC50 (Plasmodium falciparum): > 50 µM
- CC50 at 72 h [2]: > 31.5 µM

Compound: FC(F)(F)c1nc2ccccc2n2cccc12
- IC50 (Plasmodium falciparum): > 50 µM
- Ratio CC50/IC50 [3]: <3.2
- CC50 at 72 h [2]: 160 µM

Compound: Cc1nccc2ccccc12
- IC50 (Plasmodium falciparum): > 50 µM
- Ratio CC50/IC50 [3]: <3.6
- CC50 at 72 h [2]: 179 µM

Compound: C[C@H]1c2cccc(O)c2C(=O)C2=C(O)[C@]3(O)C(=O)C(C(N)=O)=C(O)[C@@H](N(C)C)[C@@H]3[C@@H](O)[C@@H]21.O [DOXYCYCLINE]
- IC50 (Plasmodium falciparum): 6 µM
- Ratio CC50/IC50 [3]: 3.3

Compound: Cc1ccc2ccccc2n1 [QUINALDINE]
- IC50 (Plasmodium falciparum): > 50 µM
- CC50 at 72 h [2]: > 500 µM

Compound: c1ccc2nccnc2c1 [QUINOXALINE]
- IC50 (Plasmodium falciparum): > 50 µM
- CC50 at 72 h [2]: > 500 µM

From ChEMBL document CHEMBL3286299, “Synthesis and in vitro evaluation of 4-trichloromethylpyrrolo[1,2-a]quinoxalines as new antiplasmodial agents” (Eur J Med Chem, 2014)
